In brackets after ≈: the same amount, converted by molar mass. Where two headings read alike, the source gives them in different places. Where a SMILES comes first, the peptide text is derived from it. Bridges are numbered along the chain shown (N, C = ends).
What was measured:
[1] = test system: Pseudomonas aeruginosa ATCC 27853; format: cell-based
Protocol: (§1) For each bacterial strain, 3-5 morphologically similar colonies were drawn from fresh cultures, inoculated in Brain Hearth Infusion broth liquid medium and incubated at the temperature of 37° C. under shaking at 225 r.p.m. for 3-4 h. Subsequently, the bacterial suspension was centrifuged at 1000 g for 20 min and the thus obtained pellet was resuspended in phosphate buffer 10 mM. Turbidity was measured in a spectrophotometer with absorbance at 600 nm, equivalent in the range 0.08-0.13 to a concentration of about 10^8 CFU/ml. The bacterial suspension was diluted 1:100 in phosphate buffer 10 mM, and within 30 min 50 microliters of such bacterial suspension (10^6 CFU/ml) were inoculated in each well of the microtiter plate, to obtain a final bacterial concentration of about 5×10^5 CFU/ml.
(§2) Several peptides were tested for their ability to inhibit bacterial growth in liquid culture. Fifty microliters of peptide at a concentration comprised between about 0.2 mM and 50 mM were added in 96-well U-bottom plates containing liquid growth medium and one of the following bacteria: Escherichia coli ATCC 25922, P. aeruginosa ATCC 27853, Stenotrophomonas maltophilia ATCC 13637. After 2 hour incubation at 37° C., bacteria were transferred on a solid medium. As a growth control, bacterial cultures were cultured in the absence of peptides.
(§3) The bacterial suspension was put in contact for two hours with different concentrations of the peptide at the temperature of 37° C. After incubation, 20 μl were drawn from the wells of each dilution and seeded on solid medium, agar McConkey. The inoculum was evenly distributed on the agarized medium by means of a sterile disposable loop. After incubation for 24 h at the temperature of 37° C., counting of the bacterial colonies (CFU) was performed.

[2] = test system: Escherichia coli ATCC 25922; format: cell-based
Protocol: as §1, §2, §3

[3] = further tests, test of Table 2a

| Compound | MBC P. aeruginosa ATCC 27853 ([1]; ATCC 27853) [µg/mL] | MBC E. coli ATCC 25922 ([2]; ATCC 25922) [µg/mL] | MBC P. aeruginosa ATCC 27853 [1, 3] | MBC E. coli ATCC 25922 [2, 3] |
| --- | --- | --- | --- | --- |
| CC[C@H](C)[C@H](NC(=O)[C@H](C)N)C(=O)N[C@H]1CSSC[C@@H](C(=O)N[C@@H](CCCCN)C(=O)O)NC(=O)[C@H](C)NC(=O)[C@H](CCCCN)NC(=O)[C@H](Cc2c[nH]c3ccccc23)NC(=O)[C@H](CCCCN)NC(=O)[C@H](Cc2c[nH]cn2)NC(=O)CNC(=O)[C@H](CCCNC(=N)N)NC(=O)[C@H](Cc2ccc(O)cc2)NC(=O)[C@H](CCCCN)NC(=O)[C@H](Cc2c[nH]c3ccccc23)NC(=O)[C@H]([C@@H](C)O)NC(=O)[C@H](CCCNC(=N)N)NC1=O [SEQ.ID.NO.: 4, Ala*Ile*Cys*Arg*Thr*Trp*Lys*Tyr*Arg*Gly*His*Lys*Trp*Lys*Ala*Cys*Lys*] (H-AICRTWKYRGHKWKACK-OH; disulfide 3-16; N-terminus and C-terminus assumed) | 1.14 (≈ 0.534 µM) | 17.37 (≈ 8.14 µM) | – | – |
| N=C(N)NCCC[C@@H]1NC(=O)[C@H](Cc2ccccc2)NC(=O)[C@H](CCCNC(=N)N)NC(=O)[C@H](Cc2ccc(O)cc2)NC(=O)[C@@H]2CCCN2C(=O)[C@H](Cc2ccccc2)NC(=O)[C@@H](NC(=O)[C@H](CCCCN)NC(=O)[C@@H](N)CCCNC(=N)N)CSSC[C@@H](C(=O)N[C@@H](Cc2ccc(O)cc2)C(=O)O)NC(=O)[C@H](CCCCN)NC(=O)[C@H](CCCCN)NC(=O)[C@H](Cc2ccccc2)NC(=O)[C@H](CCCNC(=N)N)NC(=O)[C@H](CCCCN)NC(=O)CNC1=O [SEQ.ID.NO.: 5, Arg*Lys*Cys*Phe*Pro*Tyr*Arg*Phe*Arg*Gly*Lys*Arg*Phe*Lys*Lys*Cys*Tyr*] (H-RKCFPYRFRGKRFKKCY-OH; disulfide 3-16; N-terminus and C-terminus assumed) | 1.09 (≈ 0.478 µM) | 1.08 (≈ 0.473 µM) | – | – |
| C[C@@H](O)[C@@H]1NC(=O)[C@H](Cc2ccccc2)NC(=O)[C@@H](NC(=O)[C@H](CCCCN)NC(=O)[C@@H](N)CCCCN)CSSC[C@@H](C(=O)NCC(=O)O)NC(=O)[C@H](CCCCN)NC(=O)[C@H](CCCNC(=N)N)NC(=O)[C@H](Cc2ccc(O)cc2)NC(=O)[C@H](CC(N)=O)NC(=O)[C@H](CCCCN)NC(=O)CNC(=O)[C@H](CCCNC(=N)N)NC(=O)[C@H](Cc2c[nH]c3ccccc23)NC(=O)[C@H](CCCCN)NC(=O)[C@H](Cc2c[nH]c3ccccc23)NC1=O [SEQ.ID.NO.: 6, Lys*Lys*Cys*Phe*Thr*Trp*Lys*Trp*Arg*Gly*Lys*Asn*Tyr*Arg*Lys*Cys*Gly*] (H-KKCFTWKWRGKNYRKCG-OH; disulfide 3-16; N-terminus and C-terminus assumed) | 0.4 (≈ 0.183 µM) | 1.81 (≈ 0.827 µM) | – | – |
| CC(C)C[C@H](NC(=O)[C@@H]1CSSC[C@H](NC(=O)CNC(=O)[C@@H](N)CCCNC(=N)N)C(=O)N[C@@H](Cc2c[nH]c3ccccc23)C(=O)N[C@@H](CCCNC(=N)N)C(=O)N[C@@H](Cc2c[nH]c3ccccc23)C(=O)N[C@@H](CCCCN)C(=O)N[C@@H](Cc2c[nH]c3ccccc23)C(=O)N[C@@H](CCCNC(=N)N)C(=O)NCC(=O)N[C@@H](C(C)C)C(=O)N[C@@H](Cc2c[nH]c3ccccc23)C(=O)N[C@@H](Cc2ccc(O)cc2)C(=O)N[C@@H](CCCCN)C(=O)N[C@@H](CCCCN)C(=O)N1)C(=O)O [SEQ.ID.NO.: 7, Arg*Gly*Cys*Trp*Arg*Trp*Lys*Trp*Arg*Gly*Val*Trp*Tyr*Lys*Lys*Cys*Leu*] (H-RGCWRWKWRGVWYKKCL-OH; disulfide 3-16; N-terminus and C-terminus assumed) | 3.4 (≈ 1.47 µM) | 7.81 (≈ 3.38 µM) | – | – |
| CC(C)C[C@H](NC(=O)[C@@H]1CSSC[C@H](NC(=O)[C@H](CCCCN)NC(=O)CN)C(=O)N[C@@H](Cc2c[nH]c3ccccc23)C(=O)N[C@@H](CCCCN)C(=O)N[C@@H](Cc2c[nH]c3ccccc23)C(=O)N[C@@H](CCCCN)C(=O)N[C@@H](Cc2ccc(O)cc2)C(=O)N[C@@H](CCCNC(=N)N)C(=O)NCC(=O)N[C@@H](Cc2c[nH]cn2)C(=O)N[C@@H](Cc2ccc(O)cc2)C(=O)N[C@@H](Cc2c[nH]c3ccccc23)C(=O)N[C@@H](CCCNC(=N)N)C(=O)N[C@@H]([C@@H](C)O)C(=O)N1)C(=O)O [SEQ.ID.NO.: 8, Gly*Lys*Cys*Trp*Lys*Trp*Lys*Tyr*Arg*Gly*His*Tyr*Trp*Arg*Thr*Cys*Leu*] (H-GKCWKWKYRGHYWRTCL-OH; disulfide 3-16; N-terminus and C-terminus assumed) | 1.81 (≈ 0.797 µM) | 9.26 (≈ 4.08 µM) | – | – |
| CC[C@H](C)[C@@H]1NC(=O)CNC(=O)[C@H](CCCNC(=N)N)NC(=O)[C@H](Cc2c[nH]c3ccccc23)NC(=O)[C@H](CCCCN)NC(=O)[C@H](Cc2c[nH]c3ccccc23)NC(=O)[C@H](CCCCN)NC(=O)[C@H](CC(C)C)NC(=O)[C@@H](NC(=O)[C@H](CC(N)=O)NC(=O)[C@@H](N)CCCCN)CSSC[C@@H](C(=O)N[C@@H](CC(C)C)C(=O)O)NC(=O)[C@H](CCCCN)NC(=O)[C@H](CCCNC(=N)N)NC(=O)[C@H](Cc2ccc(O)cc2)NC(=O)[C@H]([C@@H](C)O)NC1=O [SEQ.ID.NO.: 9, Lys*Asn*Cys*Leu*Lys*Trp*Lys*Trp*Arg*Gly*Ile*Thr*Tyr*Arg*Lys*Cys*Leu*] (H-KNCLKWKWRGITYRKCL-OH; disulfide 3-16; N-terminus and C-terminus assumed) | 2.57 (≈ 1.17 µM) | 7.56 (≈ 3.44 µM) | – | – |
| CC[C@H](C)[C@H](N)C(=O)N[C@@H](CCCNC(=N)N)C(=O)N[C@H]1CSSC[C@@H](C(=O)N[C@@H](CC(C)C)C(=O)O)NC(=O)[C@H](CCCCN)NC(=O)[C@H](CCCCN)NC(=O)[C@H](Cc2c[nH]c3ccccc23)NC(=O)[C@H](CCC(N)=O)NC(=O)[C@H](Cc2c[nH]cn2)NC(=O)CNC(=O)[C@H](CCCNC(=N)N)NC(=O)[C@H](Cc2ccc(O)cc2)NC(=O)[C@H](CC(N)=O)NC(=O)[C@H](Cc2c[nH]c3ccccc23)NC(=O)[C@H]([C@@H](C)O)NC(=O)[C@H](C)NC1=O [SEQ.ID.NO.: 10, Ile*Arg*Cys*Ala*Thr*Trp*Asn*Tyr*Arg*Gly*His*Gln*Trp*Lys*Lys*Cys*Leu*] (H-IRCATWNYRGHQWKKCL-OH; disulfide 3-16; N-terminus and C-terminus assumed) | 12.08 (≈ 5.59 µM) | 24.6 (≈ 11.4 µM) | – | – |
| CC[C@H](C)[C@@H]1NC(=O)CNC(=O)[C@H](CCCNC(=N)N)NC(=O)[C@H](Cc2c[nH]c3ccccc23)NC(=O)[C@H]([C@@H](C)O)NC(=O)[C@H](Cc2c[nH]c3ccccc23)NC(=O)[C@H](CCCCN)NC(=O)[C@H](CC(C)C)NC(=O)[C@@H](NC(=O)[C@H](CC(N)=O)NC(=O)[C@@H](N)CCCNC(=N)N)CSSC[C@@H](C(=O)N[C@@H](CCCCN)C(=O)O)NC(=O)[C@H](CCCCN)NC(=O)[C@H](CC(C)C)NC(=O)[C@H](Cc2ccc(O)cc2)NC(=O)[C@H]([C@@H](C)O)NC1=O [SEQ.ID.NO.: 22, Arg*Asn*Cys*Leu*Lys*Trp*Thr*Trp*Arg*Gly*Ile*Thr*Tyr*Leu*Lys*Cys*Lys*] (H-RNCLKWTWRGITYLKCK-OH; disulfide 3-16; N-terminus and C-terminus assumed) | – | – | 1.08 µg/mL (≈ 0.498 µM) | 11.72 µg/mL (≈ 5.41 µM) |
| AKCRPLHTRGKQSAVCV [Peptide P14, reference compound] | – | – | inactive | inactive |
| ANCWTRKIRGVVGVSCG [Peptide P195, reference compound] | – | – | inactive | inactive |
| FFCGNKRWRGNYQGSCK [Peptide P127, reference compound] | – | – | inactive | inactive |

— patent publication US10421782B2, “Cyclic cationic peptides with antimicrobial activity” (I.C.F. S.R.L., priority 2012, dated 2019)
